Experimental data taken from PubChem BioAssay AID1919010 (Molecular Pharmacology Branch, DTP, NCI, 2023).
Values joined by “and” are separate entries in the source; they are usually repeats but may differ in a detail not shown here. Equal entries are not always repeated. Each block holds one molecule with its values, some of them ahead of it.

Tested on: Hs578T complex spheroid growth, percent test/control
Assay: Anticancer human tumor Hs578T cell line growth inhibition [AhR];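 further: luminescent viability signal as a proxy for spheroid growth; spheroids exposed to agents for one week after three days of growth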
Conditions: for viability, T/C: stronger effect = lower value
Summary of the method: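 Agents were dosed in half-log steps down from roughly clinical Cmax, or from 10 microM where Cmax was unknown, alone and with AhR antagonists. Read-out: percent test/control growth of tumor spheroids containing HUVEC and MSC stromal cells.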

[1] = curve of first compound, second compound 0.1 µM
[2] = curve of first compound, second compound 0.316 µM
[3] = curve of first compound, second compound 1 µM
[4] = curve of first compound, second compound 3.16 µM
[5] = curve of first compound, second compound 10 µM
[6] = second compound 0.1 µM, first compound 0.0316 µM
[7] = second compound 0.1 µM, first compound 0.1 µM
[8] = second compound 0.1 µM, first compound 0.316 µM
[9] = second compound 0.1 µM, first compound 1 µM
[10] = second compound 0.1 µM, first compound 3.16 µM
[11] = second compound 0.1 µM, first compound 10 µM
[12] = second compound 0.316 µM, first compound 0.0316 µM
[13] = second compound 0.316 µM, first compound 0.1 µM
[14] = second compound 0.316 µM, first compound 0.316 µM
[15] = second compound 0.316 µM, first compound 1 µM
[16] = second compound 0.316 µM, first compound 3.16 µM
[17] = second compound 0.316 µM, first compound 10 µM
[18] = second compound 1 µM, first compound 0.0316 µM
[19] = second compound 1 µM, first compound 0.1 µM
[20] = second compound 1 µM, first compound 0.316 µM
[21] = second compound 1 µM, first compound 1 µM
[22] = second compound 1 µM, first compound 3.16 µM
[23] = second compound 1 µM, first compound 10 µM
[24] = second compound 3.16 µM, first compound 0.0316 µM
[25] = second compound 3.16 µM, first compound 0.1 µM
[26] = second compound 3.16 µM, first compound 0.316 µM
[27] = second compound 3.16 µM, first compound 1 µM
[28] = second compound 3.16 µM, first compound 3.16 µM
[29] = second compound 3.16 µM, first compound 10 µM
[30] = second compound 10 µM, first compound 0.0316 µM
[31] = second compound 10 µM, first compound 0.1 µM
[32] = second compound 10 µM, first compound 0.316 µM
[33] = second compound 10 µM, first compound 1 µM
[34] = second compound 10 µM, first compound 3.16 µM
[35] = second compound 10 µM, first compound 10 µM

SMILES: O=C(C=Cc1cccc(S(=O)(=O)Nc2ccccc2)c1)NO + Cc1cncc(-c2nc(NCCc3c[nH]c4ccccc34)c3ncn(C(C)C)c3n2)c1
IC50 [1]: 2280 nM
IC50 [2]: 2570 nM
IC50 [3]: 2330 nM
IC50 [4]: 750 nM
IC50 [5]: < 31.6 nM
viability, T/C [6]: 122%
viability, T/C [7]: 110%
viability, T/C [8]: 106%
viability, T/C [9]: 75.6%
viability, T/C [10]: 39.8%
viability, T/C [11]: 2.43%
viability, T/C [12]: 103%
viability, T/C [13]: 116%
viability, T/C [14]: 93.8%
viability, T/C [15]: 79.6%
viability, T/C [16]: 44%
viability, T/C [17]: 2.11%
viability, T/C [18]: 113%
viability, T/C [19]: 101%
viability, T/C [20]: 98.9%
viability, T/C [21]: 77.2%
viability, T/C [22]: 39.9%
viability, T/C [23]: 1.72%
viability, T/C [24]: 76.3%
viability, T/C [25]: 63.8%
viability, T/C [26]: 63.1%
viability, T/C [27]: 46.8%
viability, T/C [28]: 26.2%
viability, T/C [29]: 0.97%
viability, T/C [30]: 7.33%
viability, T/C [31]: 7.26%
viability, T/C [32]: 4.94%
viability, T/C [33]: 2.69%
viability, T/C [34]: 1.35%
viability, T/C [35]: 0.35%

SMILES: CCc1c2c(nc3ccc(O)cc13)-c1cc3c(c(=O)n1C2)COC(=O)[C@]3(O)CC + Cc1cncc(-c2nc(NCCc3c[nH]c4ccccc34)c3ncn(C(C)C)c3n2)c1
IC50 [1]: 136 nM
IC50 [2]: 197 nM
IC50 [3]: 115 nM
IC50 [4]: < 0.949 nM
IC50 [5]: < 0.949 nM
viability, T/C (second compound 0.1 µM, first compound 0.000949 µM): 74.8%
viability, T/C (second compound 0.1 µM, first compound 0.003 µM): 78.7%
viability, T/C (second compound 0.1 µM, first compound 0.00949 µM): 74.4%
viability, T/C (second compound 0.1 µM, first compound 0.03 µM): 64.6%
viability, T/C (second compound 0.1 µM, first compound 0.0949 µM): 53.9%
viability, T/C (second compound 0.1 µM, first compound 0.3 µM): 43.1%
viability, T/C (second compound 0.316 µM, first compound 0.000949 µM): 83.5%
viability, T/C (second compound 0.316 µM, first compound 0.003 µM): 78.6%
viability, T/C (second compound 0.316 µM, first compound 0.00949 µM): 80.2%
viability, T/C (second compound 0.316 µM, first compound 0.03 µM): 70.4%
viability, T/C (second compound 0.316 µM, first compound 0.0949 µM): 61.2%
viability, T/C (second compound 0.316 µM, first compound 0.3 µM): 43.7%
viability, T/C (second compound 1 µM, first compound 0.000949 µM): 77.7%
viability, T/C (second compound 1 µM, first compound 0.003 µM): 67.1%
viability, T/C (second compound 1 µM, first compound 0.00949 µM): 68.2%
viability, T/C (second compound 1 µM, first compound 0.03 µM): 59.7%
viability, T/C (second compound 1 µM, first compound 0.0949 µM): 52.1%
viability, T/C (second compound 1 µM, first compound 0.3 µM): 41.8%
viability, T/C (second compound 3.16 µM, first compound 0.000949 µM): 38.9%
viability, T/C (second compound 3.16 µM, first compound 0.003 µM): 42.9%
viability, T/C (second compound 3.16 µM, first compound 0.00949 µM): 38.7%
viability, T/C (second compound 3.16 µM, first compound 0.03 µM): 29%
viability, T/C (second compound 3.16 µM, first compound 0.0949 µM): 18.2%
viability, T/C (second compound 3.16 µM, first compound 0.3 µM): 13.8%
viability, T/C (second compound 10 µM, first compound 0.000949 µM): 4.74%
viability, T/C (second compound 10 µM, first compound 0.003 µM): 3.51%
viability, T/C (second compound 10 µM, first compound 0.00949 µM): 4.95%
viability, T/C (second compound 10 µM, first compound 0.03 µM): 2.72%
viability, T/C (second compound 10 µM, first compound 0.0949 µM): 1.85%
viability, T/C (second compound 10 µM, first compound 0.3 µM): 1%

SMILES: CC(C)c1c(-c2ccccc2)nc2c(C#N)c[nH]n2c1=O + Cc1ccccc1N=Nc1ccc(NC(=O)c2ccnn2C)c(C)c1
IC50 [1]: > 10000 nM
IC50 [2]: > 10000 nM
IC50 [3]: > 10000 nM
IC50 [4]: > 10000 nM
IC50 [5]: > 10000 nM
viability, T/C [6]: 102%
viability, T/C [7]: 99.4%
viability, T/C [8]: 108%
viability, T/C [9]: 103%
viability, T/C [10]: 91.4%
viability, T/C [11]: 100%
viability, T/C [12]: 105%
viability, T/C [13]: 113%
viability, T/C [14]: 119%
viability, T/C [15]: 99%
viability, T/C [16]: 112%
viability, T/C [17]: 104%
viability, T/C [18]: 103%
viability, T/C [19]: 103%
viability, T/C [20]: 106%
viability, T/C [21]: 101%
viability, T/C [22]: 105%
viability, T/C [23]: 96.6%
viability, T/C [24]: 96%
viability, T/C [25]: 94.7%
viability, T/C [26]: 97.1%
viability, T/C [27]: 88.1%
viability, T/C [28]: 91.1%
viability, T/C [29]: 96%
viability, T/C [30]: 64.4%
viability, T/C [31]: 66%
viability, T/C [32]: 70.1%
viability, T/C [33]: 71.2%
viability, T/C [34]: 69.4%
viability, T/C [35]: 67.6%

SMILES: Cc1cncc(-c2nc(NCCc3c[nH]c4ccccc34)c3ncn(C(C)C)c3n2)c1
viability, T/C (compound 0.1 µM): 107% [middle of 20 runs]
viability, T/C (compound 0.316 µM): 110% [middle of 20 runs]
viability, T/C (compound 10 µM): 6.41% [middle of 20 runs]
IC50 (compound alone, run of 08/16/2022): 4.32 µM [middle of 24 runs]

Second part, led by results:

IC50 [1]: > 1000 nM
IC50 [2]: > 1000 nM
IC50 [3]: > 1000 nM
IC50 [4]: > 1000 nM
IC50 [5]: > 1000 nM
SMILES: Nc1ncn(C2CC(O)C(CO)O2)c(=O)n1 (stereo unspecified) + Cc1ccccc1N=Nc1ccc(NC(=O)c2ccnn2C)c(C)c1
viability, T/C (second compound 0.1 µM, first compound 0.00316 µM): 103%
viability, T/C (second compound 0.1 µM, first compound 0.01 µM): 109%
viability, T/C [6]: 97.2%
viability, T/C [7]: 98%
viability, T/C [8]: 99.2%
viability, T/C [9]: 90%
viability, T/C (second compound 0.316 µM, first compound 0.00316 µM): 97.5%
viability, T/C (second compound 0.316 µM, first compound 0.01 µM): 97.2%
viability, T/C [12]: 96.8%
viability, T/C [13]: 98.9%
viability, T/C [14]: 85.8%
viability, T/C [15]: 81.6%
viability, T/C (second compound 1 µM, first compound 0.00316 µM): 95.4%
viability, T/C (second compound 1 µM, first compound 0.01 µM): 92%
viability, T/C [18]: 106%
viability, T/C [19]: 91.8%
viability, T/C [20]: 86.2%
viability, T/C [21]: 84.9%
viability, T/C (second compound 3.16 µM, first compound 0.00316 µM): 83.3%
viability, T/C (second compound 3.16 µM, first compound 0.01 µM): 87.2%
viability, T/C [24]: 85.9%
viability, T/C [25]: 90.8%
viability, T/C [26]: 78.5%
viability, T/C [27]: 79.8%
viability, T/C (second compound 10 µM, first compound 0.00316 µM): 63%
viability, T/C (second compound 10 µM, first compound 0.01 µM): 70.5%
viability, T/C [30]: 60.9%
viability, T/C [31]: 66%
viability, T/C [32]: 63.4%
viability, T/C [33]: 68%

IC50 (curve of compound): > 10000 nM
SMILES: CC(C)c1c(-c2ccccc2)nc2c(C#N)c[nH]n2c1=O
viability, T/C (compound 0.0316 µM): 103% and 106% and 97.8%
viability, T/C (compound 0.1 µM): 106% and 114% and 105%
viability, T/C (compound 0.316 µM): 102% and 101% and 106%
viability, T/C (compound 1 µM): 113% and 101% and 100%
viability, T/C (compound 3.16 µM): 102% and 116% and 98.1%
viability, T/C (compound 10 µM): 101% and 115% and 93.1%

IC50 [1]: 2900 nM
IC50 [2]: 2840 nM
IC50 [3]: 2140 nM
IC50 [4]: 774 nM
IC50 [5]: < 31.6 nM
SMILES: NS(=O)(=O)OCC1CC(n2ccc3c(NC4CCc5ccccc54)ncnc32)CC1O (stereo unspecified) + Cc1cncc(-c2nc(NCCc3c[nH]c4ccccc34)c3ncn(C(C)C)c3n2)c1
viability, T/C [6]: 114%
viability, T/C [7]: 94.9%
viability, T/C [8]: 83.3%
viability, T/C [9]: 60.2%
viability, T/C [10]: 51%
viability, T/C [11]: 35.1%
viability, T/C [12]: 128%
viability, T/C [13]: 100%
viability, T/C [14]: 84.2%
viability, T/C [15]: 60.6%
viability, T/C [16]: 48.2%
viability, T/C [17]: 39.6%
viability, T/C [18]: 115%
viability, T/C [19]: 98.9%
viability, T/C [20]: 99.4%
viability, T/C [21]: 59.4%
viability, T/C [22]: 48.3%
viability, T/C [23]: 36.6%
viability, T/C [24]: 69.2%
viability, T/C [25]: 66%
viability, T/C [26]: 66.1%
viability, T/C [27]: 45.4%
viability, T/C [28]: 35.4%
viability, T/C [29]: 38.3%
viability, T/C [30]: 6.36%
viability, T/C [31]: 6.52%
viability, T/C [32]: 7.75%
viability, T/C [33]: 5.11%
viability, T/C [34]: 5.06%
viability, T/C [35]: 3.64%
